Test results: patent publication US20150038707A1, “PROCESS FOR MAKING CGRP RECEPTOR ANTAGONISTS” (Merck Sharp & Dohme Corp., priority 2012, published 2015)
Values joined by “and” are separate entries in the source; they are usually repeats but may differ in a detail not shown here. Equal values may be shown once.

Columns and labels:
[1] = tested on: mosquitoes (Ae. aegypti); assay: Compound residual life: contact irritancy (Example 10); assay type: in vivo; details: for Number escaping (mean +/- SE), treated: 10 mosquitoes per run, 6 runs per net sample
Description: (§1) Four compounds of formula (I) were tested for contact irritancy (i.e., movement away from the source after physical contact) at low doses on female Aedes aegypti (Thailand strain) mosquitoes. The contact irritant response was determined by use of the contact irritant assay disclosed by Grieco et al. in “A New Classification System for the Actions of IRS Chemicals Traditionally Used for Malaria Control,” Plos One, Issue 8 (2007) (available at www.plosone.org). The assay used was a cylindrical assembly that included a metal treatment end to which 10 mosquitoes were introduced and a clear receiving chamber. The treatment end included a netting strip (nylon organdy) that was treated with the insecticide of interest at the relevant dose. A butterfly valve separated the treatment end from the remainder of the assembly.
Contact irritancy tests (blind testing) were performed for several samples of compounds 1405 and 1406 at 0 weeks, 2 weeks, 4 weeks, 8 weeks and 12 weeks to determine the residual contact irritancy of the compounds on mosquitoes (Ae. aegypti). Between testing, the nets were hung in the lab and held at a temperature of 27-29° C. and 56-67% relative humidity. Each run was performed 6 times for each sample with 10 mosquitoes used in each run (60 mosquitoes total).

[2] = tested on: Ae. aegypti Isla mujeres strain (metabolically pyrethroid resistant); assay: Toxicity assay on treated netting (Example 7), Isla mujeres strain; assay type: in vivo
Description: (§2) Several compounds were tested to determine their toxic effect on Ae. aegypti mosquitoes. Three mosquito strains were tested—Houston which is pyrethroid susceptible, That which is pyrethroid tolerant and Isla Mujer which is metabolically pyrethroid resistant.
(§3) The toxicity assay involved a single chamber to which treated netting was added. Twenty (20) mosquitoes were transferred to the chamber. After 1 hour, the number of knocked down mosquitoes was recorded and all mosquitoes were transferred to holding cartoons. The mosquitoes were given a 10% sucrose-soaked cotton ball and returned to the insectary. Mortaility was measured after 24 hours. A control assay using acetone-treated netting was used. Six replicates were performed at each treatment concentration.

[3] = tested on: Susceptible An. Gambiae; assay: Bottle toxicity assay (Example 8), susceptible mosquitoes; assay type: in vivo, Anopheles gambiae
Description: Several compounds were tested to determine their toxic effect on knockdown resistant Anopheles gambiae mosquitoes and susceptible mosquitoes. Acetone and different amounts of pesticides were added to 250 ml bottles. In one bottle, only acetone was added as a control. The bottles were rotated in all directions while uncapped until all acetone was evaporated and the insecticide was coated onto the inside surfaces of the bottle. A number of knockdown resistant Anopheles gambiae mosquitoes were added to the bottle. The number of dead mosquitoes was recorded at 1 hour and 24 hours.

[4] = tested on: Ae. Aegypti, That strain (pyrethroid tolerant); assay: Contact irritancy on pyrethroid tolerant mosquitoes (Example 5); assay type: in vivo
Description: as §1
(§4) Each composition was applied to the netting strip at a varied dose via a 1.5 ml acetone solution. Four (4) treatment concentrations were used—0.0025 nmol/cm^2, 0.025 nmol/cm^2, 0.25 nmol/cm^2 and 2.5 nmol/cm^2. Netting was allowed to dry for 15 minutes prior to placement in the cylinder. Control assays were performed with netting treated with acetone only.
(§5) For each run, 10 mosquitoes were transferred into the treatment end of the assembly and, after 30 seconds, the butterfly valve was opened. The valve was closed after 10 minutes and the number of mosquitoes in the clear end (i.e., the number of escaped mosquitoes) was tested.
(§6) The contact irritancy protocol of Example 2 was used to determine contact irritancy against mosquitoes (Ae. Aegypti) that had acquired metabolic resistance against pyrethroids. Alphacypermethrin and transfluthrin were also tested. Three mosquito strains were tested—Houston which is pyrethroid susceptible, That which is pyrethroid tolerant and Isla Mujer which is metabolically pyrethroid resistant.

[5] = tested on: Ae. aegypti Houston strain (pyrethroid susceptible); assay: Toxicity assay on treated netting (Example 7), Houston strain; assay type: in vivo
Description: as §2, §3

[6] = tested on: Ae. Aegypti strains Houston, That and Isla Mujer; assay: Spatial repellency on metabolically resistant mosquitoes (Example 6); assay type: in vivo
Description: The four compounds of formula I described in Example 2 were tested for spatial repellency (directed movement away from the chemical source without the insect making physical contact with the treated surface) at low doses on female Aedes aegypti (Thailand strain) mosquitoes. The spatial repellency response was determined by use of the spatial repellency assay disclosed by Grieco et al. in “A New Classification System for the Actions of IRS Chemicals Traditionally Used for Malaria Control” in Plos One, Issue 8 (2007) (available at www.plosone.org) which is incorporated herein by reference for all relevant and consistent purposes. The assay used was a cylindrical assembly that included a treatment chamber at one end and a control chamber at the other end. The treatment chamber included a netting strip (nylon organdy) that was treated with the insecticide of interest at the relevant dose. The treatment chamber and control chamber were connected by a clear cylinder and were separated from the clear cylinder by butterfly valves. Twenty (20) mosquitoes were introduced into the clear central chamber and the butterfly valves were opened after 30 seconds. After 10 minutes, the valves were closed and the number of mosquitoes in each chamber was counted.
as §6, with “spatial repellency” for “contact irritancy”, “3” for “2”, “DDT” for “Alphacypermethrin”

[7] = tested on: Ae. Aegypti, Isla Mujer strain (metabolically pyrethroid resistant); assay: Contact irritancy on metabolically resistant mosquitoes (Example 5); assay type: in vivo
Description: as §1, §4, §5, §6

[8] = Dose 0.025 nm/cm^2, Time 1 hour
[9] = Dose 0.025 nm/cm^2, Time 24 hours
[10] = Dose 0.0725 nm/cm^2, Time 1 hour
[11] = Dose 0.0725 nm/cm^2, Time 24 hours
[12] = Dose 0.125 nm/cm^2, Time 1 hour
[13] = Dose 0.125 nm/cm^2, Time 24 hours
[14] = Dose 0.25 nm/cm^2, Time 24 hours
[15] = Dose 2.5 nm/cm^2, Time 24 hours

CC1(C)C(C=C(Cl)Cl)C1C(=O)OCc1ccc(F)c(C(F)(F)F)c1F (centres unmarked) [Compound 1406]
residual contact irritant activity (in words) ([1]; 12 week test period, nets held at 27-29° C.): the most residual with the highest level of activity out to 12 weeks
Percent escaping (mean ± SE) ([1]; Time 0 week): 80 ± 2% and 87 ± 4% and 87 ± 7% and 87 ± 10%
Number escaping (mean +/- SE), treated ([1]; Time 0 week): 3.8 ± 0.5 and 3.2 ± 0.5 and 3.2 ± 1.2 and 4.0 ± 1.0
Percent escaping (mean ± SE) ([1]; Time 2 week): 57 ± 4% and 63 ± 5% and 58 ± 7% and 62 ± 8%
Number escaping (mean +/- SE), treated ([1]; Time 2 week): 2.5 ± 0.8 and 2.7 ± 0.3 and 2.2 ± 0.2
Percent escaping (mean ± SE) ([1]; Time 4 week): 50 ± 10% and 47 ± 4% and 45 ± 4% and 35 ± 8%
Number escaping (mean +/- SE), treated ([1]; Time 4 week): 2.0 ± 0.4 and 2.3 ± 0.5 and 2.5 ± 0.4 and 2.5 ± 0.8
Percent escaping (mean ± SE) ([1]; Time 8 week): 40 ± 10% and 37 ± 2% and 27 ± 7% and 28 ± 9%
Percent escaping (mean ± SE) ([1]; Time 12 week): 37 ± 4% and 31 ± 4% and 22 ± 6% and 19 ± 5%
Isla mujeres (% dead (SE)) ([2]; Dose 0.00725 nm/cm^2, Time 1 hour): 0%
Isla mujeres (% dead (SE)) ([2]; Dose 0.00725 nm/cm^2, Time 24 hours): 7.77%
Isla mujeres (% dead (SE)) [2, 8]: 100%
Isla mujeres (% dead (SE)) [2, 9]: 42.77%
Isla mujeres (% dead (SE)) [2, 10]: 96.29%
Isla mujeres (% dead (SE)) [2, 11]: 25.37%
Isla mujeres (% dead (SE)) [2, 12]: 100%
Isla mujeres (% dead (SE)) [2, 13]: 100%
Isla mujeres (% dead (SE)) ([2]; Dose 0.25 nm/cm^2, Time 1 hour): 100%
Isla mujeres (% dead (SE)) [2, 14]: 100%
Isla mujeres (% dead (SE)) ([2]; Dose 2.5 nm/cm^2, Time 1 hour): 100%
Isla mujeres (% dead (SE)) [2, 15]: 100%
toxicity to resistant populations compared with standard compounds ([2]; summary of Table 2): more toxic to resistant populations than permethrin, matfluthrin and transfluthrin
Susceptible An. Gambiae (% dead (SE)) ([3]; Dose 0.025 μg/bottle, Strain Tested F122, Time 1 hour): 100%
Susceptible An. Gambiae (% dead (SE)) ([3]; Dose 0.025 μg/bottle, Strain Tested F122, Time 24 hours): 100%
Susceptible An. Gambiae (% dead (SE)) ([3]; Dose 0.025 μg/bottle, Strain Tested F123, Time 1 hour): 100%
Susceptible An. Gambiae (% dead (SE)) ([3]; Dose 0.025 μg/bottle, Strain Tested F123, Time 24 hours): 100%
Susceptible An. Gambiae (% dead (SE)) ([3]; Dose 0.25 μg/bottle, Strain Tested F122, Time 1 hour): 100%
Susceptible An. Gambiae (% dead (SE)) ([3]; Dose 0.25 μg/bottle, Strain Tested F122, Time 24 hours): 100%
Susceptible An. Gambiae (% dead (SE)) ([3]; Dose 0.25 μg/bottle, Strain Tested F123, Time 1 hour): 100%
Susceptible An. Gambiae (% dead (SE)) ([3]; Dose 0.25 μg/bottle, Strain Tested F123, Time 24 hours): 100%
Susceptible An. Gambiae (% dead (SE)) ([3]; Dose 2.5 μg/bottle, Strain Tested F122, Time 1 hour): 100%
Susceptible An. Gambiae (% dead (SE)) ([3]; Dose 2.5 μg/bottle, Strain Tested F122, Time 24 hours): 100%
Susceptible An. Gambiae (% dead (SE)) ([3]; Dose 2.5 μg/bottle, Strain Tested F123, Time 1 hour): 100%
Susceptible An. Gambiae (% dead (SE)) ([3]; Dose 2.5 μg/bottle, Strain Tested F123, Time 24 hours): 100%
contact irritancy, tolerant strain (FIG. 4) [4]: contact irritants for tolerant strains
Houston (% dead (SE)) [5, 8]: 100%
Houston (% dead (SE)) [5, 9]: 100%
Houston (% dead (SE)) [5, 10]: 100%
Houston (% dead (SE)) [5, 11]: 100%
Houston (% dead (SE)) [5, 12]: 100%
Houston (% dead (SE)) [5, 13]: 100%
Houston (% dead (SE)) ([5]; Dose 0.25 nm/cm^2, Time 1 hour): 100%
Houston (% dead (SE)) [5, 14]: 100%
Houston (% dead (SE)) ([5]; Dose 2.5 nm/cm^2, Time 1 hour): 100%
Houston (% dead (SE)) [5, 15]: 100%
spatial repellency, all strains (FIG. 5) [6]: spatial repellants for all strains
contact irritancy, resistant strain (FIG. 4) [7]: effective in resistant strains
